The molecules below were run on AGS cells (KRAS^G12D) (assay: Detection of cell proliferation in vitro by MTT/MTS method (cell activity experiment)). Conditions: Homo sapiens, AGS, 72 h, AGS cells; MTT/MTS; 3 days of drug treatment; read-out: AGS IC50.
Type: cell-based
Outline: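 After 3-day compound exposure (final DMSO 0.5%), viability of AGS (KRAS G12D) cells, plated 1000/well one day before dosing, was measured at 490 nm following 4 h MTT or MTS incubation. IC50 was fitted from dose–effect curves relative to DMSO-treated wells.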

Q: With CC1(C)CCc2cc(O)cc(-c3ncc4c(N5C[C@H]6CC[C@@H](C5)N6)nc(OC[C@@]56CCCN5C[C@H](F)C6)nc4c3F)c21 [Example 299, 7-(4-((1R,5S)-3,8-diazabicyclo[3.2.1]octan-3-yl)-8-fluoro-2-(((2R,7aS)-2-fluorotetrahydro-1H-pyrrolizin-7a(5H)-yl)methoxy)pyrido[4,3-d]pyrimidin-7-yl)-1,1-dimethyl-2,3-dihydro-1H-inden-5-ol] as the molecule, how does the IC50 read?
A: The IC50 was 945 nM.

Q: Oc1cc2c(c(-c3ncc4c(N5C[C@H]6CC[C@@H](C5)N6)nc(OC[C@@]56CCCN5C[C@H](F)C6)nc4c3F)c1)CC1(CC1)C2 [Example 300, 4′-(4-((1R,5S)-3,8-diazabicyclo[3.2.1]octan-3-yl)-8-fluoro-2-(((2R,7aS)-2-fluorotetrahydro-1H-pyrrolizin-7a(5H)-yl)methoxy)pyrido[4,3-d]pyrimidin-7-yl)-1′,3′-dihydrospiro[cyclopropane-1,2′-inden]-6′-ol] was tested. Which IC50 did it give?
A: The IC50 was 177 nM.

Q: How did the IC50 turn out when CC1CCCc2cc(O)cc(-c3c(Cl)cc4c(N5C[C@H]6CC[C@@H](C5)N6)nc(OC[C@@]56CCCN5C[C@H](F)C6)nc4c3F)c21 (stereo partly drawn) [Example 301, 4-(4-((1R,5S)-3,8-diazabicyclo[3.2.1]octan-3-yl)-6-chloro-8-fluoro-2-(((2R,7aS)-2-fluorotetrahydro-1H-pyrrolizin-7a(5H)-yl)methoxy)quinazolin-7-yl)-5-methyl-5,6,7,8-tetrahydronaphthalen-2-ol] was run?
A: The IC50 was 28 nM.

Q: How did the IC50 turn out when CCC1CCc2cc(O)cc(-c3c(Cl)cc4c(N5C[C@H]6CC[C@@H](C5)N6)nc(OC[C@@]56CCCN5C[C@H](F)C6)nc4c3F)c21 (stereo partly drawn) [Example 302, 7-(4-((1R,5S)-3,8-diazabicyclo[3.2.1]octan-3-yl)-6-chloro-8-fluoro-2-(((2R,7aS)-2-fluorotetrahydro-1H-pyrrolizin-7a(5H)-yl)methoxy)quinazolin-7-yl)-1-ethyl-2,3-dihydro-1H-inden-5-ol] was run?
A: Its IC50 is 22 nM.

Q: CCC1CCCc2cc(O)cc(-c3c(Cl)cc4c(N5C[C@H]6CC[C@@H](C5)N6)nc(OC[C@@]56CCCN5C[C@H](F)C6)nc4c3F)c21 (stereo partly drawn) [Example 303, 4-(4-((1R,5S)-3,8-diazabicyclo[3.2.1]octan-3-yl)-6-chloro-8-fluoro-2-(((2R,7aS)-2-fluorotetrahydro-1H-pyrrolizin-7a(5H)-yl)methoxy)quinazolin-7-yl)-5-ethyl-5,6,7,8-tetrahydronaphthalen-2-ol] was tested. Which IC50 did it give?
A: The IC50 was 22 nM.

Q: With CC1CCc2cc(O)cc(-c3c(Cl)cc4c(N5C[C@H]6CC[C@@H](C5)N6)nc(OC[C@@]56CCCN5C[C@H](F)C6)nc4c3F)c21 (stereo partly drawn) [Example 304, 7-(4-((1R,5S)-3,8-diazabicyclo[3.2.1]octan-3-yl)-6-chloro-8-fluoro-2-(((2R,7aS)-2-fluorotetrahydro-1H-pyrrolizin-7a(5H)-yl)methoxy)quinazolin-7-yl)-1-methyl-2,3-dihydro-1H-inden-5-ol] as the molecule, how does the IC50 read?
A: Its IC50 is 35 nM.

Q: How did the IC50 turn out when Oc1cc2c(c(-c3ccc4c(N5C[C@H]6CC[C@@H](C5)N6)nc(OC[C@@]56CCCN5C[C@H](F)C6)nc4c3F)c1)C=CCC2 [Example 305, 4-(4-((1R,5S)-3,8-diazabicyclo[3.2.1]octan-3-yl)-8-fluoro-2-(((2R,7aS)-2-fluorotetrahydro-1H-pyrrolizin-7a(5H)-yl)methoxy)quinazolin-7-yl)-7,8-dihydronaphthalen-2-ol] was run?
A: The IC50 was 102 nM.

Q: Which IC50 does the source give for Oc1cc2c(c(-c3ccc4c(N5C[C@H]6CC[C@@H](C5)N6)nc(OC[C@@]56CCCN5C[C@H](F)C6)nc4c3F)c1)C=CC2 [Example 306, 4-(4-((1R,5S)-3,8-diazabicyclo[3.2.1]octan-3-yl)-8-fluoro-2-(((2R,7aS)-2-fluorotetrahydro-1H-pyrrolizin-7a(5H)-yl)methoxy)quinazolin-7-yl)-1H-inden-6-ol] here?
A: The IC50 was 366 nM.

Q: With C#Cc1c(F)ccc2cc(O)cc(-c3ccc4c(N5C[C@H]6CC[C@@H](C5)N6)nc(OC[C@@]56CCCN5C[C@H](F)C6)nc4c3OC3CC3)c12 [Example 327, 4-(4-((1R,5S)-3,8-diazabicyclo[3.2.1]octan-3-yl)-8-cyclopropoxy-2-(((2R,7aS)-2-fluorotetrahydro-1H-pyrrolizin-7a(5H)-yl)methoxy)quinazolin-7-yl)-5-ethynyl-6-fluoronaphthalen-2-ol] as the molecule, how does the IC50 read?
A: The IC50 was 230 nM.

Q: Which IC50 does the source give for C#Cc1c(F)ccc2cc(O)cc(-c3ccc4c(N5C[C@H]6CC[C@@H](C5)N6)nc(OC[C@@]56CCCN5C[C@H](F)C6)nc4c3O)c12 [Example 328, 4-((1R,5S)-3,8-diazabicyclo[3.2.1]octan-3-yl)-7-(8-ethynyl-7-fluoro-3-hydroxynaphthalen-1-yl)-2-(((2R,7aS)-2-fluorotetrahydro-1H-pyrrolizin-7a(5H)-yl)methoxy)quinazolin-8-ol] here?
A: Its IC50 is 8910 nM.

Q: Oc1cc(-c2c(Cl)cc3c(N4C[C@H]5CC[C@@H](C4)N5)nc(OC[C@@]45CCCN4C[C@H](F)C5)nc3c2OC2CC2)c2ccccc2c1 [Example 329, 4-(4-((1R,5S)-3,8-diazabicyclo[3.2.1]octan-3-yl)-6-chloro-8-cyclopropoxy-2-(((2R,7aS)-2-fluorotetrahydro-1H-pyrrolizin-7a(5H)-yl)methoxy)quinazolin-7-yl)naphthalen-2-ol] was tested. Which IC50 did it give?
A: The IC50 was 260 nM.

Q: C#Cc1c(F)ccc2cc(O)cc(-c3c(Cl)cc4c(N5C[C@H]6CC[C@@H](C5)N6)nc(OC[C@@]56CCCN5C[C@H](F)C6)nc4c3OC3CC3)c12 [Example 330, 4-(4-((1R,5S)-3,8-diazabicyclo[3.2.1]octan-3-yl)-6-chloro-8-cyclopropoxy-2-(((2R,7aS)-2-fluorotetrahydro-1H-pyrrolizin-7a(5H)-yl)methoxy)quinazolin-7-yl)-5-ethynyl-6-fluoronaphthalen-2-ol] was tested. Which IC50 did it give?
A: The IC50 was 195 nM.

Q: With C#Cc1c(F)ccc2cc(O)cc(-c3c(Cl)cc4c(N5C[C@H]6CC[C@@H](C5)N6)nc(OC[C@@]56CCCN5C[C@H](F)C6)nc4c3OCC(F)(F)F)c12 [Example 331, 4-(4-((1R,5S)-3,8-diazabicyclo[3.2.1]octan-3-yl)-6-chloro-2-(((2R,7aS)-2-fluorotetrahydro-1H-pyrrolizin-7a(5H)-yl)methoxy)-8-(2,2,2-trifluoroethoxy)quinazolin-7-yl)-5-ethynyl-6-fluoronaphthalen-2-ol] as the molecule, how does the IC50 read?
A: Its IC50 is 823 nM.

Q: How did the IC50 turn out when C#Cc1c(F)ccc2cc(O)cc(-c3ncc4c(N5C[C@H]6CC[C@@H](C5)N6)nc(OC[C@@]56CCCN5C[C@H](F)C6)nc4c3O)c12 [Example 332, 4-((1R,5S)-3,8-diazabicyclo[3.2.1]octan-3-yl)-7-(8-ethynyl-7-fluoro-3-hydroxynaphthalen-1-yl)-2-(((2R,7aS)-2-fluorotetrahydro-1H-pyrrolizin-7a(5H)-yl)methoxy)pyrido[4,3-d]pyrimidin-8-ol] was run?
A: The IC50 was over 2500 nM.

Q: With C#Cc1c(F)ccc2cc(O)cc(-c3ncc4c(N5C[C@H]6CC[C@@H](C5)N6)nc(OC[C@@]56CCCN5C[C@H](F)C6)nc4c3OCC(F)(F)F)c12 [Example 333, 4-(4-((1R,5S)-3,8-diazabicyclo[3.2.1]octan-3-yl)-2-(((2R,7aS)-2-fluorotetrahydro-1H-pyrrolizin-7a(5H)-yl)methoxy)-8-(2,2,2-trifluoroethoxy)pyrido[4,3-d]pyrimidin-7-yl)-5-ethynyl-6-fluoronaphthalen-2-ol] as the molecule, how does the IC50 read?
A: Its IC50 is 455 nM.

— patent publication US20240300980A1, “HETEROCYCLIC COMPOUNDS AS KRAS INHIBITOR, AND PREPARATION THEREFOR AND USE THEREOF IN TREATMENT” (SHANGHAI KECHOW PHARMA, INC., priority 2021, published 2024)
